Laboratory results published in patent US20100260697A1, “Composition Containing An Extract of the Fruit of Schisandra Chinensis and Process for Producing Same” (COGNIS FRANCE S.A.S., priority 2003, published 2010).
Where “and” joins values, the source holds several entries; their conditions need not be identical. Identical values can stand only once.

Experiments:
melanocytes B16 = assay: Inhibition of melanin synthesis; whitening activity on melanocytes B16; type: cell-based; conditions: for Melanin / Proteins: % against control, 3 days
Procedure: The whitening activity of the extract was evaluated on a cell line of melanocytes (melanocytes B16 were used; this is a cell line known to the skilled person in the art). The melanocytes were exposed to the extract for 3 days at 37° C. and then the melanocytes were homogenised in 1 n NaOH and the level of melanin was evaluated by measuring the optical density at 475 nm. The level of proteins in the cells was determined by Bradford's method.
The results are expressed in % refering of the control and the whitening potential is characterised by the ratio of melanin level by the protein level (or melanin/protein) for a non toxic concentration of the tested compound.

human fibroblasts = assay: Protection of human fibroblasts against UV-A radiation (released MDA, cellular proteins); type: cell-based; conditions: % versus non-irradiated control; UV-A 20 J/cm2; dose 0.0003 % w/v
Procedure: The aim of this test is to evaluate the capacities against oxidative stress of the extract by a test on a cell culture of human fibroblasts in vitro. This test in vitro evaluates the capacities of cytophotoprotection of human fibroblasts against UV-A radiation. […] The formed lipoperoxydes split in malondialdehyde responsible of the reticulation of many biological molecules such as proteins (inhibition of enzymes) and nucleic bases (mutagenesis).
The fibroblasts were seeded in a defined culture medium with foetal calf serum (FCS). […] At the end of the irradiation, the level of MDA (malondialdehyde) was measured in the supernatant by a chemical reaction of MDA with thiobarbituric acid which produces a coloured compound the concentration of which was determined by measuring optical density and the level of proteins was measured in the cell homogenate by Bradford's method. Bradford's method is a known method to quantify the level of proteins (Bradford M M., A rapid and sensitive method for the quantification of microgram quantities of protein utilizing the principle of protein-dye binding. Anal. Biochem., Vol 72, pages 248 to 254, 1976).
The results are expressed as % versus the irradiated control or MDA, and the non-irradiated control for proteins then as an average value of 2 tests in triplicate: […]

With OC[C@H]1O[C@@H](Oc2ccc(O)cc2)[C@H](O)[C@@H](O)[C@@H]1O [Arbutin] the Melanin (melanocytes B16; dose 0.2 % w/v) was 54%, the Proteins (melanocytes B16; dose 0.2 % w/v) was 86% and the “Index = Proteins/Melanin” value (melanocytes B16; dose 0.2 % w/v) was 1.60.

For O=c1cc(CO)occ1O [Kojic acid], the Melanin (melanocytes B16; dose 0.03 % w/v) was 26%, the Proteins (melanocytes B16; dose 0.03 % w/v) was 89% and the “Index = Proteins/Melanin” value (melanocytes B16; dose 0.03 % w/v) was 3.37.

vitamin E was tested, and the “Cellular Proteins” value (human fibroblasts) was 110% and 96%.
